Test results published in patent US20230085307A1, “PYRIDAZINONE COMPOUND AND HERBICIDE” (NISSAN CHEMICAL CORPORATION, priority 2019, published 2023).

Tests used:
late watergrass = assay: Test Example 1: herbicidal activity, application before weed generation under submerged conditions (Table 16, symbol A); type: in vivo, late watergrass (Echinochloa oryzicola); conditions: amount of applied herbicide 320 g/ha
Method in brief: (§1)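 Submerged Wagner pots (alluvial soil, 4 cm water) sown with weed seeds and planted with 2.5-leaf rice seedlings; emulsifiable concentrate diluted in water applied to water surface on sowing day. Held in greenhouse at 25-30 °C; injury scored 0-5 by herbicidal rate after three weeks.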

Japanese bulrush = assay: Test Example 1: herbicidal activity, application before weed generation under submerged conditions (Table 16, symbol B); type: in vivo, Japanese bulrush (Schoenoplectus juncoides); conditions: amount of applied herbicide 320 g/ha
Method in brief: as §1

oval-leafed pondweed = assay: Test Example 1: herbicidal activity, application before weed generation under submerged conditions (Table 16, symbol C); type: in vivo, oval-leafed pondweed (Monochoria vaginalis); conditions: amount of applied herbicide 320 g/ha
Method in brief: as §1

barnyard grass [1] = assay: Test Example 3: herbicidal effect by foliage application, Wagner pot (Table 18, symbol H); type: in vivo, barnyard grass (Echinochloa crus-galli); conditions: 320 g/ha
Method in brief: (§2)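 Plants were sown in alluvial soil held under 0.1–0.5 cm standing water and grown 14 days in a greenhouse at 25–30 °C. An emulsifiable formulation, water-diluted to the set dose, was then sprayed onto the foliage, and effects were scored three weeks later using previously defined criteria.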

Chinese sprangletop = assay: Test Example 3: herbicidal effect by foliage application, Wagner pot (Table 18, symbol D); type: in vivo, chinese sprangletop (Leptochloa chinensis); conditions: 320 g/ha
Method in brief: as §2

rice flat sedge = assay: Test Example 3: herbicidal effect by foliage application, Wagner pot (Table 18, symbol E); type: in vivo, rice flat sedge (Cyperus iria); conditions: 320 g/ha
Method in brief: as §2

southern crabgrass [2] = assay: Test Example 4: herbicidal effect by soil treatment (Table 19, symbol F); type: in vivo, southern crabgrass (Digitaria ciliaris); conditions: amount of applied herbicide 320 g/ha
Method in brief: (§3)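 Pre-emergence style soil spray: seeds under ~1.5 cm sterilized diluvial soil received a uniform coat of emulsion diluted to the predetermined herbicide amount. Greenhouse 25–30° C; readout at week three on previously defined criteria.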

green foxtail [3] = assay: Test Example 4: herbicidal effect by soil treatment (Table 19, symbol G); type: in vivo, green foxtail (Setaria viridis); conditions: amount of applied herbicide 320 g/ha
Method in brief: as §3

barnyard grass [4] = assay: Test Example 4: herbicidal effect by soil treatment (Table 19, symbol H); type: in vivo, barnyard grass (Echinochloa crus-galli); conditions: amount of applied herbicide 320 g/ha
Method in brief: as §3

wild oat [5] = assay: Test Example 4: herbicidal effect by soil treatment (Table 19, symbol I); type: in vivo, wild oat (Avena fatua); conditions: amount of applied herbicide 320 g/ha
Method in brief: as §3

blackgrass [6] = assay: Test Example 4: herbicidal effect by soil treatment (Table 19, symbol J); type: in vivo, blackgrass (Alopecurus myosuroides); conditions: amount of applied herbicide 320 g/ha
Method in brief: as §3

Italian ryegrass [7] = assay: Test Example 4: herbicidal effect by soil treatment (Table 19, symbol K); type: in vivo, Italian ryegrass (Lolium multiflorum); conditions: amount of applied herbicide 320 g/ha
Method in brief: as §3

windgrass [8] = assay: Test Example 4: herbicidal effect by soil treatment (Table 19, symbol L); type: in vivo, windgrass (Apera spica-venti); conditions: amount of applied herbicide 320 g/ha
Method in brief: as §3

velvetleaf [9] = assay: Test Example 4: herbicidal effect by soil treatment (Table 19, symbol M); type: in vivo, velvetleaf (Abutilon theophrasti); conditions: amount of applied herbicide 320 g/ha
Method in brief: as §3

redroot pigweed [10] = assay: Test Example 4: herbicidal effect by soil treatment (Table 19, symbol N); type: in vivo, redroot pigweed (Amaranthus retroflexus); conditions: amount of applied herbicide 320 g/ha
Method in brief: as §3

lambsquarters [11] = assay: Test Example 4: herbicidal effect by soil treatment (Table 19, symbol O); type: in vivo, lambsquarters (Chenopodium album); conditions: amount of applied herbicide 320 g/ha
Method in brief: as §3

chickweed [12] = assay: Test Example 4: herbicidal effect by soil treatment (Table 19, symbol P); type: in vivo, common chickweed (Stellaria media); conditions: amount of applied herbicide 320 g/ha
Method in brief: as §3

false cleavers [13] = assay: Test Example 4: herbicidal effect by soil treatment (Table 19, symbol Q); type: in vivo, false cleavers (Galium spurium); conditions: amount of applied herbicide 320 g/ha
Method in brief: as §3

persian speedwell [14] = assay: Test Example 4: herbicidal effect by soil treatment (Table 19, symbol R); type: in vivo, Persian speedwell (Veronica persica); conditions: amount of applied herbicide 320 g/ha
Method in brief: as §3

southern crabgrass [15] = assay: Test Example 5: herbicidal effect by foliage application, plastic box (Table 20, symbol F); type: in vivo, southern crabgrass (Digitaria ciliaris)
Method in brief: (§4)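 Plants were sown into sterilized diluvial soil under about 1.5 cm cover and kept in a greenhouse at 25° C. to 30° C. Fourteen days on, foliage received an even spray of the diluted emulsion. Herbicidal or crop effect was judged three weeks afterwards.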

green foxtail [16] = assay: Test Example 5: herbicidal effect by foliage application, plastic box (Table 20, symbol G); type: in vivo, green foxtail (Setaria viridis)
Method in brief: as §4

barnyard grass [17] = assay: Test Example 5: herbicidal effect by foliage application, plastic box (Table 20, symbol H); type: in vivo, barnyard grass (Echinochloa crus-galli)
Method in brief: as §4

wild oat [18] = assay: Test Example 5: herbicidal effect by foliage application, plastic box (Table 20, symbol I); type: in vivo, wild oat (Avena fatua)
Method in brief: as §4

blackgrass [19] = assay: Test Example 5: herbicidal effect by foliage application, plastic box (Table 20, symbol J); type: in vivo, blackgrass (Alopecurus myosuroides)
Method in brief: as §4

Italian ryegrass [20] = assay: Test Example 5: herbicidal effect by foliage application, plastic box (Table 20, symbol K); type: in vivo, Italian ryegrass (Lolium multiflorum)
Method in brief: as §4

windgrass [21] = assay: Test Example 5: herbicidal effect by foliage application, plastic box (Table 20, symbol L); type: in vivo, windgrass (Apera spica-venti)
Method in brief: as §4

velvetleaf [22] = assay: Test Example 5: herbicidal effect by foliage application, plastic box (Table 20, symbol M); type: in vivo, velvetleaf (Abutilon theophrasti)
Method in brief: as §4

redroot pigweed [23] = assay: Test Example 5: herbicidal effect by foliage application, plastic box (Table 20, symbol N); type: in vivo, redroot pigweed (Amaranthus retroflexus)
Method in brief: as §4

lambsquarters [24] = assay: Test Example 5: herbicidal effect by foliage application, plastic box (Table 20, symbol O); type: in vivo, lambsquarters (Chenopodium album)
Method in brief: as §4

chickweed [25] = assay: Test Example 5: herbicidal effect by foliage application, plastic box (Table 20, symbol P); type: in vivo, common chickweed (Stellaria media)
Method in brief: as §4

false cleavers [26] = assay: Test Example 5: herbicidal effect by foliage application, plastic box (Table 20, symbol Q); type: in vivo, false cleavers (Galium spurium)
Method in brief: as §4

persian speedwell [27] = assay: Test Example 5: herbicidal effect by foliage application, plastic box (Table 20, symbol R); type: in vivo, Persian speedwell (Veronica persica)
Method in brief: as §4

[28] = foliage application, 320 g/ha, three weeks after application
[29] = amount of applied herbicide 320 g/ha, foliage application after 14-day growth, evaluated three weeks after application

Row | SMILES | Herbicidal effect, A: late watergrass (late watergrass) | Herbicidal effect, B: Japanese bulrush (Japanese bulrush) | Herbicidal effect, C: oval-leafed pondweed (oval-leafed pondweed) | herbicidal effect on barnyard grass (H) (barnyard grass [1]) | herbicidal effect on Chinese sprangletop (D) (Chinese sprangletop) | herbicidal effect on rice flat sedge (E) (rice flat sedge) | F: southern crabgrass, herbicidal effect grade (southern crabgrass [2]) | G: green foxtail, herbicidal effect grade (green foxtail [3]) | H: barnyard grass, herbicidal effect grade (barnyard grass [4]) | I: wild oat, herbicidal effect grade (wild oat [5]) | J: blackgrass, herbicidal effect grade (blackgrass [6]) | K: Italian ryegrass, herbicidal effect grade (Italian ryegrass [7]) | L: windgrass, herbicidal effect grade (windgrass [8]) | M: velvetleaf, herbicidal effect grade (velvetleaf [9]) | N: redroot pigweed, herbicidal effect grade (redroot pigweed [10]) | O: lambsquarters, herbicidal effect grade (lambsquarters [11]) | P: chickweed, herbicidal effect grade (chickweed [12]) | Q: false cleavers, herbicidal effect grade (false cleavers [13]) | R: persian speedwell, herbicidal effect grade (persian speedwell [14]) | further results
1 | CCCC(=O)Oc1c(C)nn(C)c(=O)c1-c1c(-c2ccc(SC)cc2)sc2cc(OC)ccc12 [3-075] | 1 (Herbicidal rate of 5% or more and less than 20%) | 1 (Herbicidal rate of 5% or more and less than 20%) | 2 (Herbicidal rate of 20% or more and less than 40%) | 0 (Herbicidal rate of 5% or less (almost no effect)) | 3 (Herbicidal rate of 40% or more and less than 70%) | 3 (Herbicidal rate of 40% or more and less than 70%) | 0 (Herbicidal rate of 5% or less (almost no effect)) | 0 (Herbicidal rate of 5% or less (almost no effect)) | 0 (Herbicidal rate of 5% or less (almost no effect)) | 0 (Herbicidal rate of 5% or less (almost no effect)) | 0 (Herbicidal rate of 5% or less (almost no effect)) | 0 (Herbicidal rate of 5% or less (almost no effect)) | 0 (Herbicidal rate of 5% or less (almost no effect)) | 0 (Herbicidal rate of 5% or less (almost no effect)) | 3 (Herbicidal rate of 40% or more and less than 70%) | 3 (Herbicidal rate of 40% or more and less than 70%) | 2 (Herbicidal rate of 20% or more and less than 40%) | 0 (Herbicidal rate of 5% or less (almost no effect)) | 4 (Herbicidal rate of 70% or more and less than 90%) | F: southern crabgrass, herbicidal effect grade (southern crabgrass [15]; [28]): 3 (Herbicidal rate of 40% or more and less than 70%); G: green foxtail, herbicidal effect grade (green foxtail [16]; [28]): 3 (Herbicidal rate of 40% or more and less than 70%); H: barnyard grass, herbicidal effect grade (barnyard grass [17]; [28]): 3 (Herbicidal rate of 40% or more and less than 70%); I: wild oat, herbicidal effect grade (wild oat [18]; [28]): 0 (Herbicidal rate of 5% or less (almost no effect)); J: blackgrass, herbicidal effect grade (blackgrass [19]; [28]): 0 (Herbicidal rate of 5% or less (almost no effect)); K: Italian ryegrass, herbicidal effect grade (Italian ryegrass [20]; [28]): 0 (Herbicidal rate of 5% or less (almost no effect)); L: windgrass, herbicidal effect grade (windgrass [21]; [28]): 0 (Herbicidal rate of 5% or less (almost no effect)); M: velvetleaf, herbicidal effect grade (velvetleaf [22]; [28]): 0 (Herbicidal rate of 5% or less (almost no effect)); N: redroot pigweed, herbicidal effect grade (redroot pigweed [23]; [28]): 4 (Herbicidal rate of 70% or more and less than 90%); O: lambsquarters, herbicidal effect grade (lambsquarters [24]; [28]): 4 (Herbicidal rate of 70% or more and less than 90%); P: chickweed, herbicidal effect grade (chickweed [25]; [28]): 5 (Herbicidal rate of 90% or more (almost completely withered)); Q: false cleavers, herbicidal effect grade (false cleavers [26]; [28]): 5 (Herbicidal rate of 90% or more (almost completely withered)); R: persian speedwell, herbicidal effect grade (persian speedwell [27]; [28]): 5 (Herbicidal rate of 90% or more (almost completely withered))
2 | CCCC(=O)Oc1c(C)nn(C)c(=O)c1-c1c(-c2ccccc2OCC)sc2cc(F)c(F)cc12 [5-017] | 3 (Herbicidal rate of 40% or more and less than 70%) | 2 (Herbicidal rate of 20% or more and less than 40%) | 2 (Herbicidal rate of 20% or more and less than 40%) | 5 (Herbicidal rate of 90% or more (almost completely withered)) | 0 (Herbicidal rate of 5% or less (almost no effect)) | 5 (Herbicidal rate of 90% or more (almost completely withered)) | 4 (Herbicidal rate of 70% or more and less than 90%) | 4 (Herbicidal rate of 70% or more and less than 90%) | 4 (Herbicidal rate of 70% or more and less than 90%) | 3 (Herbicidal rate of 40% or more and less than 70%) | 0 (Herbicidal rate of 5% or less (almost no effect)) | 0 (Herbicidal rate of 5% or less (almost no effect)) | 2 (Herbicidal rate of 20% or more and less than 40%) | 3 (Herbicidal rate of 40% or more and less than 70%) | 5 (Herbicidal rate of 90% or more (almost completely withered)) | 4 (Herbicidal rate of 70% or more and less than 90%) | 4 (Herbicidal rate of 70% or more and less than 90%) | 4 (Herbicidal rate of 70% or more and less than 90%) | 5 (Herbicidal rate of 90% or more (almost completely withered)) | Herbicidal effect by foliage application, F: southern crabgrass (southern crabgrass [15]; [29]): 1 (Herbicidal rate of 5% or more and less than 20%); Herbicidal effect by foliage application, G: green foxtail (green foxtail [16]; [29]): 0 (Herbicidal rate of 5% or less (almost no effect)); Herbicidal effect by foliage application, H: barnyard grass (barnyard grass [17]; [29]): 3 (Herbicidal rate of 40% or more and less than 70%); Herbicidal effect by foliage application, I: wild oat (wild oat [18]; [29]): 3 (Herbicidal rate of 40% or more and less than 70%); Herbicidal effect by foliage application, J: blackgrass (blackgrass [19]; [29]): 4 (Herbicidal rate of 70% or more and less than 90%); Herbicidal effect by foliage application, K: Italian ryegrass (Italian ryegrass [20]; [29]): 0 (Herbicidal rate of 5% or less (almost no effect)); Herbicidal effect by foliage application, L: windgrass (windgrass [21]; [29]): 3 (Herbicidal rate of 40% or more and less than 70%); Herbicidal effect by foliage application, M: velvetleaf (velvetleaf [22]; [29]): 4 (Herbicidal rate of 70% or more and less than 90%); Herbicidal effect by foliage application, N: redroot pigweed (redroot pigweed [23]; [29]): 2 (Herbicidal rate of 20% or more and less than 40%); Herbicidal effect by foliage application, O: lambsquarters (lambsquarters [24]; [29]): 1 (Herbicidal rate of 5% or more and less than 20%); Herbicidal effect by foliage application, P: chickweed (chickweed [25]; [29]): 5 (Herbicidal rate of 90% or more (almost completely withered)); Herbicidal effect by foliage application, Q: false cleavers (false cleavers [26]; [29]): 5 (Herbicidal rate of 90% or more (almost completely withered)); Herbicidal effect by foliage application, R: persian speedwell (persian speedwell [27]; [29]): 5 (Herbicidal rate of 90% or more (almost completely withered))
